Data from PubChem BioAssay (NCI).
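Results reflect a 48-hour exposure of cells in 96-well plates to compound at five concentrations. Definition used: TGI = concentration required for complete inhibition of growth.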

Assays:
Experiment in all cases: DTP human tumour cell line panel, 48 h
[1] = test system: 786-0 renal
[2] = test system: A498 renal
[3] = test system: A549 NSCLC
[4] = test system: ACHN renal
[5] = test system: CCRF-CEM leukemia
[6] = test system: COLO 205 colon
[7] = test system: DLD-1 colon
[8] = test system: DMS 114 small cell lung
[9] = test system: DMS 273 small cell lung
[10] = test system: EKVX NSCLC
[11] = test system: HCC-2998 colon
[12] = test system: HCT-116 colon
[13] = test system: HCT-15 colon
[14] = test system: HL-60(TB) leukemia
[15] = test system: HOP-62 NSCLC
[16] = test system: HT29 colon
[17] = test system: IGROV1 ovarian
[18] = test system: K-562 leukemia
[19] = test system: KM20L2 colon
[20] = test system: LOX IMVI melanoma
[21] = test system: LXFL 529 NSCLC
[22] = test system: M14 melanoma
[23] = test system: M19-MEL melanoma
[24] = test system: MALME-3M melanoma
[25] = test system: MOLT-4 leukemia
[26] = test system: NCI-H226 lung
[27] = test system: NCI-H23 lung
[28] = test system: NCI-H460 lung
[29] = test system: OVCAR-3 ovarian
[30] = test system: OVCAR-4 ovarian
[31] = test system: OVCAR-8 ovarian
[32] = test system: RPMI-8226 leukemia
[33] = test system: RXF 393 renal
[34] = test system: RXF-631 renal
[35] = test system: SF-268 CNS
[36] = test system: SF-295 CNS
[37] = test system: SF-539 CNS
[38] = test system: SK-MEL-2 melanoma
[39] = test system: SK-MEL-28 melanoma
[40] = test system: SK-MEL-5 melanoma
[41] = test system: SN12C renal
[42] = test system: SNB-19 CNS
[43] = test system: SR leukemia
[44] = test system: SW-620 colon
[45] = test system: TK-10 renal
[46] = test system: U251 CNS
[47] = test system: UACC-257 melanoma
[48] = test system: UACC-62 melanoma
[49] = test system: UO-31 renal
[50] = test system: XF 498 CNS
[51] = test system: CAKI-1 renal
[52] = test system: HOP-92 NSCLC
[53] = test system: KM12 colon
[54] = test system: NCI-H522 lung
[55] = test system: OVCAR-5 ovarian
[56] = test system: SK-OV-3 ovarian
[57] = test system: SNB-75 CNS
[58] = test system: SNB-78 CNS

COC(=O)CC(C(C(=O)OCc1ccccc1)C(C)O)N1C(=O)OC(c2ccccc2)C1c1ccccc1 (stereo not drawn)
TGI [1]: > 100 µM | TGI [2]: > 100 µM | TGI [3]: > 100 µM | TGI [4]: > 100 µM | TGI [5]: > 100 µM | TGI [6]: > 100 µM | TGI [7]: > 100 µM | TGI [8]: > 100 µM | TGI [9]: > 100 µM | TGI [10]: > 100 µM | TGI [11]: > 100 µM | TGI [12]: > 100 µM | TGI [13]: > 100 µM | TGI [14]: > 100 µM | TGI [15]: > 100 µM | TGI [16]: > 100 µM | TGI [17]: > 100 µM | TGI [18]: > 100 µM | TGI [19]: > 100 µM | TGI [20]: > 100 µM | TGI [21]: > 100 µM | TGI [22]: > 100 µM | TGI [23]: > 100 µM | TGI [24]: > 100 µM | TGI [25]: > 100 µM | TGI [26]: > 100 µM | TGI [27]: > 100 µM | TGI [28]: > 100 µM | TGI [29]: > 100 µM | TGI [30]: > 100 µM | TGI [31]: > 100 µM | TGI [32]: > 100 µM | TGI [33]: > 100 µM | TGI [34]: > 100 µM | TGI [35]: > 100 µM | TGI [36]: > 100 µM | TGI [37]: > 100 µM | TGI [38]: > 100 µM | TGI [39]: > 100 µM | TGI [40]: > 100 µM | TGI [41]: > 100 µM | TGI [42]: > 100 µM | TGI [43]: > 100 µM | TGI [44]: > 100 µM | TGI [45]: > 100 µM | TGI [46]: > 100 µM | TGI [47]: > 100 µM | TGI [48]: > 100 µM | TGI [49]: > 100 µM | TGI [50]: > 100 µM

CC(=O)NNc1nc(C)c(C(=O)NNC(=O)C(=O)Nc2cccc(C(C)=O)c2)s1
TGI [2]: 47.8 µM | TGI [3]: > 100 µM | TGI [4]: 30.8 µM | TGI [51]: 31.6 µM | TGI [5]: 67.3 µM | TGI [6]: > 100 µM | TGI [7]: 98.9 µM | TGI [8]: 34.2 µM | TGI [9]: > 100 µM | TGI [10]: > 100 µM | TGI [11]: 32.5 µM | TGI [12]: > 100 µM | TGI [13]: 52.5 µM | TGI [14]: 57.9 µM | TGI [15]: 68.2 µM | TGI [52]: 90 µM | TGI [16]: > 100 µM | TGI [17]: 60.7 µM | TGI [18]: > 100 µM | TGI [53]: 57.7 µM | TGI [19]: > 100 µM | TGI [20]: 39.1 µM | TGI [23]: 43.5 µM | TGI [25]: > 100 µM | TGI [26]: 62 µM | TGI [27]: 35.2 µM | TGI [28]: 33.2 µM | TGI [54]: 28.9 µM | TGI [30]: 64.3 µM | TGI [55]: > 100 µM | TGI [31]: 39.4 µM | TGI [32]: > 100 µM | TGI [33]: 30 µM | TGI [34]: 68.3 µM | TGI [35]: 54 µM | TGI [36]: 66.2 µM | TGI [37]: 39.8 µM | TGI [38]: > 100 µM | TGI [39]: 49 µM | TGI [40]: > 100 µM | TGI [56]: 32.5 µM | TGI [41]: 35.1 µM | TGI [42]: > 100 µM | TGI [57]: 38.9 µM | TGI [58]: > 100 µM | TGI [43]: 45.8 µM | TGI [44]: > 100 µM | TGI [45]: 31.1 µM | TGI [46]: 90.4 µM | TGI [47]: 49.9 µM | TGI [48]: 31.4 µM | TGI [49]: 30.9 µM | TGI [50]: 30.6 µM
